What all share (format): cell-based
In one assay the test system is CACO2. As to the kind of experiment: Antiproliferative activity in human tumor cell lines: CACO2 (colon). As to conditions: Homo sapiens. The procedure:
(§1) The antiproliferative activity of the compounds of Formula I in an Adult Bovine Aortic Endothelial (ABAE) cell line and in Human Tumor cell lines is evaluated in three similar assays that measure growth inhibition. The assays are identified as follows:
(§2) PROTOCOL 1,2,and 3 are described in greater detail hereinbelow. In general, according to PROTOCOLS 1 and 2, the target ABAE and/or Human Tumor cells are exposed to the compounds of Formula I for 48 hours. PROTOCOL 3 exposes ABAE cells to the compounds for 4 days. A detailed description of the protocols is as follows:
(§3) The antiproliferative activity of the compounds of Formula I of the present invention is evaluated in a panel comprised of human tumor cell lines and an adult bovine aortic endothelial cell line (ABAE). The human tumor cell lines are from
(§4) All cell lines are maintained in log phase in RPMI 1640 media, supplemented with 5% fetal calf serum, penicillin/streptomycin and 2 mM L-glutamine. Cultures are renewed after 20 passages with cells from a fresh stock of batch-frozen early passage cells. Cell lines are routinely checked for mycoplasma contamination (Genprobe). In a laminar flow hood, cells (1-5×10^4) are plated into 96-well microtiter plates in a volume of 0.1 ml/well with a bulk microtiter dispenser (Denley). […] At this concentration, dimethylsulfoxide has no effect on cell growth. Compounds are added using a Tomtec dispenser which simultaneously dispenses from one 96-well plate, containing the drug dilutions, to the plates containing the cells. After two days of continuous drug exposure, 50% cold trichloroacetic acid (TCA) is added to 10% final concentration to fix the cells, and after 60 minutes at 4° C., the TCA is aspirated and the plates are washed 5 times with deionized water using a microtiter plate washer. The number of cells on the plate are quantitated using a protein dye-binding assay (Monks et al., 1991). A 0.4% solution of the dye, sulforhodamine B, in glacial acetic acid is added to the plates, and the plates are washed 5 times with 1% glacial acetic acid using the automatic plate washed. The bound stain is solubilized with 0.1 ml of 10 mM Tris base. The optical densities are read from an automatic spectrophotometric plate reader (Dynatech) directly to a main frame computer (VAX 8600).
(§5) Positive controls, that include standard chemotherapeutic drugs (i.e., Adriamycin, Cisplatin, etc.), are included in every experiment.
(§6) Background optical density measurements (complete media-cells, and complete media+drug-cells) are automatically subtracted from the appropriate control and test wells. Mean values and standard errors are determined from duplicate wells. A measure is also made of the optical density at time when the drugs are added. The number of cells after treatment (P), as % of control, is calculated for every concentration of drug, as follows: [formula] wherein: T is optical density measurement for treated cells after 48 hours;
(§7) C is optical density measurement for untreated cells after 48 hours;
(§8) Co is optical density measurement for cells at the time of drug addition.
(§9) IC50 of growth inhibition is calculated from the sets of P values using the RS-1 data package (BBN Software).
(§10) The antiproliferative activity of the compounds of Formula I is evaluated in a panel comprised of human tumor cell lines and an adult bovine aortic cell line (ABAE) as listed in PROTOCOL 1. This assay is a modification of PROTOCOL 1. The modifications include:
(§11) 1) each concentration for each compound is tested in a single well;
(§12) 2) compounds are tested at 20, 4, 0.8, 0.16 microgram/ml and additionally in some experiments at 100 and 0.32 microgram/ml;
(§13) 3) samples are pipetted into a 96-well plate for each of the cell lines by a Beckman Biomek 1000 SL robot;
(§14) 4) after fixing with TCA each well is washed with 0.35 ml distilled water twice, not five times;
(§15) 5) after staining with sulforhodamine B each well is washed 3 times, not five times; […]

A further assay relates to SW620. As to the kind of experiment: Antiproliferative activity in human tumor cell lines: SW620 (colon). Here is the method:
as §1, §2, §3, §4, §5, §6, §7, §8, §9, §10, §11, §12, §13, §14, §15

The subject of the next assay is Human Tumor cell lines. As to the kind of experiment: Antiproliferative activity in the panel of human tumor cell lines. Conditions: for IC50: Homo sapiens, average over the 6 tumor cell lines. Here is the method: as §1, §2, §3, §4, §5, §6, §7, §8, §9, §10, §11, §12, §13, §14, §15
Assay [1] deals with Adult Bovine Aortic Endothelial (ABAE) cell line. Nature of the assay: Antiproliferative activity in ABAE cell line, PROTOCOL 1. Conditions: Bos taurus, PROTOCOL 1, 48 hours. The procedure: The antiproliferative activity of the compounds of Formula I in an Adult Bovine Aortic Endothelial (ABAE) cell line and in Human Tumor cell lines is evaluated in three similar assays that measure growth inhibition. The assays are identified as follows: PROTOCOL 1,2,and 3 are described in greater detail hereinbelow. In general, according to PROTOCOLS 1 and 2, the target ABAE and/or Human Tumor cells are exposed to the compounds of Formula I for 48 hours. PROTOCOL 3 exposes ABAE cells to the compounds for 4 days. A detailed description of the protocols is as follows: PROTOCOL 1 Antiproliferative Activity in Human Tumor and Adult Bovine Aortic Endothelial Cell Lines (ABAE) The antiproliferative activity of the compounds of Formula I of the present invention is evaluated in a panel comprised of human tumor cell lines and an adult bovine aortic endothelial cell line (ABAE). The human tumor cell lines are from All cell lines are maintained in log phase in RPMI 1640 media, supplemented with 5% fetal calf serum, penicillin/streptomycin and 2 mM L-glutamine. Cultures are renewed after 20 passages with cells from a fresh stock of batch-frozen early passage cells. Cell lines are routinely checked for mycoplasma contamination (Genprobe). In a laminar flow hood, cells (1-5×10^4) are plated into 96-well microtiter plates in a volume of 0.1 ml/well with a bulk microtiter dispenser (Denley). […] At this concentration, dimethylsulfoxide has no effect on cell growth. Compounds are added using a Tomtec dispenser which simultaneously dispenses from one 96-well plate, containing the drug dilutions, to the plates containing the cells. After two days of continuous drug exposure, 50% cold trichloroacetic acid (TCA) is added to 10% final concentration to fix the cells, and after 60 minutes at 4° C., the TCA is aspirated and the plates are washed 5 times with deionized water using a microtiter plate washer. The number of cells on the plate are quantitated using a protein dye-binding assay (Monks et al., 1991). A 0.4% solution of the dye, sulforhodamine B, in […] is added to the plates, and the plates are washed 5 times with 1% […] using the automatic plate washed. The bound stain is solubilized with 0.1 ml of 10 mM Tris base. The optical densities are read from an automatic spectrophotometric plate reader (Dynatech) directly to a main frame computer (VAX 8600). Positive controls, that include standard chemotherapeutic drugs (i.e., Adriamycin, Cisplatin, etc.), are included in every experiment. Background optical density measurements (complete media-cells, and complete media+drug-cells) are automatically subtracted from the appropriate control and test wells. Mean values and standard errors are determined from duplicate wells. A measure is also made of the optical density at time when the drugs are added. The number of cells after treatment (P), as % of control, is calculated for every concentration of drug, as follows: [formula] wherein: T is optical density measurement for treated cells after 48 hours; C is optical density measurement for untreated cells after 48 hours; Co is optical density measurement for cells at the time of drug addition. IC50 of growth inhibition is calculated from the sets of P values using the RS-1 data package (BBN Software). Table 1 presents the results depicting the antiproliferative activity of the compounds of Formula I against an Adult Bovine Aortic Endothelial cell line (ABAE), as evaluated by PROTOCOL 1 and 2. The results are presented in terms of IC50 and are as follows.

Where [2] appears, read: Caco-2, CACO2 colon tumor, PROTOCOL 1 and PROTOCOL 2, 48 hours, read-out: IC50.
Where [3] appears, read: SW-620, SW620 colon tumor, PROTOCOL 1 and PROTOCOL 2, 48 hours, read-out: IC50.

By IC50 is commonly meant the midpoint of a concentration-inhibition curve.

Counter-ions that a name gives are not always drawn. Like-named read-outs stand apart in the source and are kept apart here.

As to `CN(C)[C@@H]1C(O)=C(C(N)=O)C(=O)[C@@]2(O)C(O)=C3C(=O)c4c(cc(Cl)c(NC(=O)CN5CCCCC5)c4O)CC3CC12` (stereo partly drawn) [Example 10, 7S-(7α,10aα)]-N-[9-(Aminocarbonyl)-3-chloro-7-(dimethylamino)-5,5a,6,6a,7,10,10a,12-octahydro-1,8,10a,11-tetrahydroxy-10,12-dioxo-2-naphthacenyl]-1-piperidineacetamide dihydrochloride], the IC50 in the assay on CACO2 (setting [2]) is 0.65 µg/mL; in the assay on SW620 (SW-620, 48 h) it was 0.6 µg/mL; in the assay on Human Tumor cell lines it was 0.6 µg/mL; in assay [1] it was 0.7 µg/mL.
`CN(C)CC(=O)Nc1c(Cl)cc2c(c1O)C(=O)C1=C(O)[C@]3(O)C(=O)C(C(N)=O)=C(O)[C@@H](N(C)C)C3CC1C2` (stereo partly drawn) [Example 3, [4S-(45, 12aα)]-8-Chloro-4-(dimethylamino)-9[[(dimethylamino)acetyl]amino]-1,4,4a,5,5a,6,11,12a-octahydro-3,10,12,12a-tetrahydroxy-1,11-dioxo-2-naphthacenecarboxamide disulfate]: the IC50 with CACO2 (setting [2]) is 1.65 µg/mL; in the assay with SW620 (setting [3]), 2.3 µg/mL; in the assay on Human Tumor cell lines it was 1.9 µg/mL; in assay [1] it was 2.2 µg/mL.
`CNCC(=O)Nc1c(Cl)cc2c(c1O)C(=O)C1=C(O)[C@]3(O)C(=O)C(C(N)=O)=C(O)[C@@H](N(C)C)C3CC1C2` (stereo partly drawn) [Example 7, [4S-(4α, 12aα)]-8-Chloro-4-(dimethylamino)-1,4,4a,5,5a,6,11,12a-octahydro-3,10,12,12a-tetrahydroxy-1,11-dioxo-9-[[(methylamino)acetyl]amino]-2-naphthacenecarboxamide dihydrochloride]: the half-inhibitory concentration (IC50) with CACO2 (setting [2]) was 3.8 µg/mL; with SW620 (setting [3]) it was 4 µg/mL; in the assay with Human Tumor cell lines, 4.3 µg/mL; in assay [1], 3.3 µg/mL.
Consider `CN(C)[C@@H]1C(O)=C(C(N)=O)C(=O)[C@@]2(O)C(O)=C3C(=O)c4c(cc(Cl)c(NC(=O)CN5CCCC5)c4O)CC3CC12` (stereo partly drawn) [Example 9, [7S-(7α,10aα)]-N-[9-(Aminocarbonyl)-3-chloro-7-(dimethylamino)-5,5a,6,6a,7,10,10a,12-octahydro-1,8,10a,11-tetrahydroxy-10,12-dioxo-2-naphthacenyl]-1-pyrrolidineacetamide dihydrochloride], for which the IC50 in the assay with CACO2 (setting [2]) was 1.7 µg/mL; in the assay on SW620 (SW-620, 48 h) it was 2 µg/mL; in the assay with Human Tumor cell lines, 1.45 µg/mL; in assay [1], 2.5 µg/mL.
`CCCNCC(=O)Nc1c(Cl)cc2c(c1O)C(=O)C1=C(O)[C@]3(O)C(=O)C(C(N)=O)=C(O)[C@@H](N(C)C)C3CC1C2` (stereo partly drawn) [Example 5, [4S-(4α, 12aα)]-8-Chloro-4-(dimethylamino)-1,4,4a,5,5a, 6,11,12a-octahydro-3,10,12,12a-tetrahydroxy-1,11-dioxo-9-[[(propylamino)acetyl]amino]-2-naphthacenecarboxamide dihydrochloride]: the IC50 worked out at 4 µg/mL in the assay with CACO2 (Caco-2, 48 h); 3.5 µg/mL with SW620 (setting [3]); 4.6 µg/mL in the assay on Human Tumor cell lines; 2 µg/mL in assay [1]. Further, the “inhibition of cell growth at the highest concentrations” value in the assay on Human Tumor cell lines (FIG. 2, 6 Human Tumor cell lines, highest concentrations) was “no 100% inhibition of cell growth”. Besides, the Dead floating cells entry with Human Tumor cell lines (at the highest concentration) was “not observed”.
Consider `CCCCNCC(=O)Nc1c(Cl)cc2c(c1O)C(=O)C1=C(O)[C@]3(O)C(=O)C(C(N)=O)=C(O)[C@@H](N(C)C)C3CC1C2` (stereo partly drawn) [Example 4, [4S-(4α, 12aα)]-9-[[(Butylamino)acetyl]amino]-8-chloro-4-(dimethylamino) -1,4,4a,5,5a,6,11,12a-octahydro-3,10,12,12a-tetrahydroxy-1,11-dioxo-2-naphthacenecarboxamide dihydrochloride], for which the IC50 is 2.5 µg/mL in the assay on CACO2 (setting [2]), 2.8 µg/mL with SW620 (setting [3]), 2.5 µg/mL in the assay with Human Tumor cell lines and 2.3 µg/mL in assay [1].
Consider `CN(C)c1c(Cl)cc(O)c2c1CC1CC3[C@H](N(C)C)C(O)=C(C(N)=O)C(=O)[C@@]3(O)C(O)=C1C2=O` (stereo partly drawn) [Example 11, [4S-(4α,12aα)]-8-Chloro-4,7-bis(dimethylamino)-1,4,4a,5,5a,6,11,12a-octahydro-3,10,12,12a-tetrahydroxy-1,11-dioxo-2-naphthacenecarboxamide sulfate], for which the IC50 with CACO2 (setting [2]) was found to be 3.6 µg/mL; in the assay with SW620 (setting [3]) it was 4.5 µg/mL; with Human Tumor cell lines, 2.8 µg/mL; in assay [1] it was 3 µg/mL.
`CCCCCNCC(=O)Nc1c(Cl)cc2c(c1O)C(=O)C1=C(O)[C@]3(O)C(=O)C(C(N)=O)=C(O)[C@@H](N(C)C)C3CC1C2` (stereo partly drawn) [Example 6, [4S-(4α, 12aα)]-8-Chloro-4-(dimethylamino)-1,4,4a,5,5a,6,11,12a-octahydro-3,10,12,12a-tetrahydroxy-1,11-dioxo-9-[[(pentylamino)acetyl]amino]-2-naphthacenecarboxamide dihydrochloride]: the IC50 in the assay with CACO2 (setting [2]) came out at 0.7 µg/mL; in the assay on SW620 (SW-620, 48 h) it was 0.8 µg/mL; in the assay with Human Tumor cell lines, 0.8 µg/mL; in assay [1], 0.6 µg/mL.
Take `CN(C)[C@@H]1C(O)=C(C(N)=O)C(=O)[C@@]2(O)C(O)=C3C(=O)c4c(cc(Cl)c(NC(=O)CNCC5CC5)c4O)CC3CC12` (stereo partly drawn) [Example 8, [4S-(4α,12aα)]-8-Chloro-9-[[(cyclopropylmethylamino)-acetyl]amino]4-(dimethylamino)-1,4,4a,5,5a,6,11,12a-octahydro-3,10,12,12a-tetrahydroxy-1,11-dioxo-2-naphthacenecarboxamide dihydrochloride]: the half-maximal inhibitory concentration (IC50) worked out at 2.8 µg/mL in the assay with CACO2 (setting [2]), 2.4 µg/mL with SW620 (setting [3]), 2.45 µg/mL in the assay on Human Tumor cell lines and 2 µg/mL in assay [1].

(Values after patent publication US5567693A, “Method for inhibiting angiogenesis, proliferation of endothelial or tumor cells and tumor growth” (American Cyanamid Company, priority 1994, dated 1996).)
